# Assay results from PubChem BioAssay AID330 (DTP/NCI, 2004).
# Where “and” joins values, the source holds several entries; their conditions need not be identical. Equal values may be shown once. Toxic doses and inconclusive results are not listed. Peptide text beside a SMILES is read from it.
# System: P388 leukemia ip, CD2F1 mice, survival T/C
# Assay: NCI In Vivo Anticancer Drug Screen. Data for tumor model P388 Leukemia (intraperitoneal) in CD2F1 (CDF1) mice
# Conditions: endpoint: median survival time, higher = longer survival
# Summary of the method: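 Mice carrying the transplanted tumor received test compound or vehicle. Survival was recorded in each group, and the value is the treated-group measurement divided by that of the vehicle-treated control group.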
# [1] = dose: 50.0 mg/kg/injection, schedule: Q01DX005 (ip), vehicle: Klucel (hydroxypropylcellulose) (HPC)
# [2] = dose: 100.0 mg/kg/injection, schedule: Q01DX005 (ip), vehicle: Klucel (hydroxypropylcellulose) (HPC)
# [3] = dose: 200.0 mg/kg/injection, schedule: Q01DX005 (ip), vehicle: Klucel (hydroxypropylcellulose) (HPC)
# [4] = dose: 25.0 mg/kg/injection, schedule: Q01DX009 (ip), vehicle: saline
# [5] = dose: 50.0 mg/kg/injection, schedule: Q01DX009 (ip), vehicle: saline
# [6] = dose: 100.0 mg/kg/injection, schedule: Q01DX009 (ip), vehicle: saline
# [7] = dose: 60.0 mg/kg/injection, schedule: Q01DX005 (ip), vehicle: Klucel (hydroxypropylcellulose) (HPC)
# [8] = dose: 120.0 mg/kg/injection, schedule: Q01DX005 (ip), vehicle: Klucel (hydroxypropylcellulose) (HPC)
# [9] = dose: 240.0 mg/kg/injection, schedule: Q01DX005 (ip), vehicle: Klucel (hydroxypropylcellulose) (HPC)
# [10] = dose: 50.0 mg/kg/injection, schedule: Q01DX009 (ip), vehicle: saline with Tween-80
# [11] = dose: 100.0 mg/kg/injection, schedule: Q01DX009 (ip), vehicle: saline with Tween-80
# [12] = dose: 200.0 mg/kg/injection, schedule: Q01DX009 (ip), vehicle: saline with Tween-80
# [13] = dose: 200.0 mg/kg/injection, schedule: Q01DX009 (ip), vehicle: saline
# [14] = dose: 100.0 mg/kg/injection, schedule: Q01DX001 (ip), vehicle: saline with Tween-80
smiles,measurement,setting,value
CC(C)C1NC(=O)N(C2CCCCCC2)C1=O (stereo not given),T/C,[1],100 % of control
same,T/C,[2],96 % of control
same,T/C,[3],100 % of control
COC(=O)C1=CCN2CCCC12C (stereo not given),T/C,"dose: 25.0 mg/kg/injection, schedule: Q01DX001 (ip), vehicle: saline",97 % of control
same,T/C,"dose: 50.0 mg/kg/injection, schedule: Q01DX001 (ip), vehicle: saline",101 % of control
same,T/C,"dose: 100.0 mg/kg/injection, schedule: Q01DX001 (ip), vehicle: saline",105 % of control
CSc1nc(N)n2ncc(Br)c2n1,T/C,"dose: 100.0 mg/kg/injection, schedule: Q04DX002 (ip), vehicle: saline with Tween-80",92 % of control
O=NN(CCF)C(=O)Oc1cc(Cl)c(Cl)cc1Cl,T/C,"dose: 12.0 mg/kg/injection, schedule: Q01DX005 (ip), vehicle: saline with Tween-80",170 % of control
same,T/C,"dose: 25.0 mg/kg/injection, schedule: Q01DX005 (ip), vehicle: saline with Tween-80",202 % of control
O=C1C2=C(Nc3cc(Cl)ccc3N2)OC1c1c[nH]c2ccc(COc3ccccc3)cc12 (stereo not given),T/C,"dose: 60.0 mg/kg/injection, schedule: Q01DX005 (ip), vehicle: saline with Tween-80",93 % of control
same,T/C,"dose: 120.0 mg/kg/injection, schedule: Q01DX005 (ip), vehicle: saline with Tween-80",93 % of control
same,T/C,"dose: 240.0 mg/kg/injection, schedule: Q01DX005 (ip), vehicle: saline with Tween-80",89 % of control
CN(C)CCC(CCc1ccccc1)OC(=O)c1ccccc1 (stereo not given),T/C,[4],102 % of control
same,T/C,[5],101 % of control
same,T/C,[6],102 % of control
c1ncn(Cn2cncn2)n1,T/C,[7],105 % of control
same,T/C,[8],107 % of control
same,T/C,[9],101 % of control
CC(C)(C)N=C(CCN1CCOCC1)Nc1ccccc1Cl,T/C,[10],113 % of control
same,T/C,[11],106 % of control
same,T/C,[12],109 % of control
Cc1nc(Cl)c(C)c(=O)[nH]1,T/C,[5],165 % of control
same,T/C,[6],166 % of control
CCOC(=O)C(C#N)C1(c2ccccc2)CCCCC1 (stereo not given),T/C,[10],112 % of control
same,T/C,[11],101 % of control
same,T/C,[12],101 % of control
CCCCCCCCCCCCSC(SCCCCCCCCCCCC)SCCCCCCCCCCCC,T/C,"dose: 12.5 mg/kg/injection, schedule: Q01DX009 (ip), vehicle: saline with Tween-80",97 % of control
same,T/C,"dose: 25.0 mg/kg/injection, schedule: Q01DX009 (ip), vehicle: saline with Tween-80",92 % of control
same,T/C,[10],99 % of control
same,T/C,[11],106 % of control
COc1ccc2c(ccc[n+]2C)c1,T/C,"dose: 5.0 mg/kg/injection, schedule: Q01DX009 (ip), vehicle: saline with Tween-80",100 % of control
same,T/C,"dose: 10.0 mg/kg/injection, schedule: Q01DX009 (ip), vehicle: saline with Tween-80",110 % of control
same,T/C,"dose: 20.0 mg/kg/injection, schedule: Q01DX009 (ip), vehicle: saline with Tween-80",110 % of control
O=c1ccc(=O)[nH][nH]1,T/C,[4],102 % of control
same,T/C,[5],105 % of control and 88 % of control
same,T/C,[6],99 % of control and 102 % of control
same,T/C,[13],99 % of control and 100 % of control
same,T/C,"dose: 400.0 mg/kg/injection, schedule: Q01DX009 (ip), vehicle: saline",99 % of control and 110 % of control
O=C(O)C12C=CC(CC1)CC2,T/C,[7],99 % of control
same,T/C,[8],105 % of control
same,T/C,[9],100 % of control
O=C(CBr)Nc1ccc(Cc2ccc(NC(=O)CBr)cc2)cc1,T/C,[14],99 % of control
same,T/C,"dose: 200.0 mg/kg/injection, schedule: Q01DX001 (ip), vehicle: saline with Tween-80",93 % of control
same,T/C,"dose: 400.0 mg/kg/injection, schedule: Q01DX001 (ip), vehicle: saline with Tween-80",94 % of control
C1CC2CC1CC2CNCC1CC2CCC1C2 (stereo not given),T/C,"dose: 12.5 mg/kg/injection, schedule: Q01DX005 (ip), vehicle: Klucel (hydroxypropylcellulose) (HPC)",103 % of control
same,T/C,"dose: 25.0 mg/kg/injection, schedule: Q01DX005 (ip), vehicle: Klucel (hydroxypropylcellulose) (HPC)",103 % of control
same,T/C,[1],98 % of control and 101 % of control
O=C1C2=C(SCCS2)C(=O)N1c1cccc2ccccc12,T/C,[5],97 % of control
same,T/C,[6],97 % of control
same,T/C,[13],100 % of control
O=NN(CCSCCO)C(=O)NC1CCCCC1,T/C,"dose: 6.25 mg/kg/injection, schedule: Q01DX009 (ip), vehicle: water",101 % of control
same,T/C,"dose: 12.5 mg/kg/injection, schedule: Q01DX009 (ip), vehicle: water",100 % of control
same,T/C,"dose: 25.0 mg/kg/injection, schedule: Q01DX009 (ip), vehicle: water",102 % of control
same,T/C,"dose: 50.0 mg/kg/injection, schedule: Q01DX009 (ip), vehicle: water",109 % of control
same,T/C,"dose: 100.0 mg/kg/injection, schedule: Q01DX009 (ip), vehicle: water",110 % of control
same,T/C,"dose: 200.0 mg/kg/injection, schedule: Q01DX009 (ip), vehicle: water",107 % of control
CCCCCC(CSCC)C(=O)/C=C/c1ccc(Cl)c(Cl)c1 (stereo not given),T/C,"dose: 12.5 mg/kg/injection, schedule: Q01DX009 (ip), vehicle: distilled water + Tween-80",101 % of control
same,T/C,"dose: 25.0 mg/kg/injection, schedule: Q01DX009 (ip), vehicle: distilled water + Tween-80",105 % of control
same,T/C,"dose: 50.0 mg/kg/injection, schedule: Q01DX009 (ip), vehicle: distilled water + Tween-80",103 % of control and 104 % of control
same,T/C,"dose: 100.0 mg/kg/injection, schedule: Q01DX009 (ip), vehicle: distilled water + Tween-80",105 % of control and 109 % of control
same,T/C,"dose: 200.0 mg/kg/injection, schedule: Q01DX009 (ip), vehicle: distilled water + Tween-80",120 % of control and 124 % of control
same,T/C,"dose: 400.0 mg/kg/injection, schedule: Q01DX009 (ip), vehicle: distilled water + Tween-80",119 % of control
Cl[Si](Cl)(Cl)CCc1ccccn1,T/C,[4],99 % of control
same,T/C,[5],86 % of control
same,T/C,[6],95 % of control
same,T/C,[13],100 % of control
CCC(C)C(N)C(=O)NC(C(=O)O)C(C)C (stereo not drawn) (H-Ile-Val-OH; configuration not given here),T/C,"dose: 60.0 mg/kg/injection, schedule: Q01DX005 (ip), vehicle: saline",95 % of control
same,T/C,"dose: 120.0 mg/kg/injection, schedule: Q01DX005 (ip), vehicle: saline",103 % of control
same,T/C,"dose: 240.0 mg/kg/injection, schedule: Q01DX005 (ip), vehicle: saline",95 % of control
N#CC(C(O)c1ccccc1)N1CCCCC1 (stereo not given),T/C,"dose: 50.0 mg/kg/injection, schedule: Q01DX009 (ip), vehicle: suspension in saline",111 % of control
same,T/C,"dose: 100.0 mg/kg/injection, schedule: Q01DX009 (ip), vehicle: suspension in saline",100 % of control
same,T/C,"dose: 200.0 mg/kg/injection, schedule: Q01DX009 (ip), vehicle: suspension in saline",92 % of control
O=c1cc2[nH]c3ccccc3c(=O)n2[nH]1,T/C,[1],98 % of control
same,T/C,[2],97 % of control
same,T/C,[3],95 % of control
N#Cc1c(NC(=S)NC(=O)c2ccc(Cl)c(Cl)c2)sc(=S)c2c1CCCC2,T/C,[10],108 % of control
same,T/C,[11],96 % of control
same,T/C,[12],92 % of control
Oc1ccc(C2c3ccccc3Oc3ccccc32)c2ccccc12,T/C,"dose: 100.0 mg/kg/injection, schedule: Q01DX001 (ip), vehicle: gum acacia",93 % of control
same,T/C,"dose: 200.0 mg/kg/injection, schedule: Q01DX001 (ip), vehicle: gum acacia",105 % of control
same,T/C,"dose: 400.0 mg/kg/injection, schedule: Q01DX001 (ip), vehicle: gum acacia",101 % of control
C1COCCOCCOCCOCCO1.[Cl][Sn]([Cl])([Cl])[Cl],T/C,[7],100 % of control
same,T/C,[8],99 % of control
O=[N+]([O-])c1ccc2c(ccn2C2OCC(O)C(O)C2O)c1 (stereo not given),T/C,[10],94 % of control
same,T/C,[11],108 % of control
same,T/C,[12],106 % of control
CC(C)(C)NC/C(C#N)=C\c1ccccc1,T/C,"dose: 25.0 mg/kg/injection, schedule: Q01DX001 (ip), vehicle: saline with Tween-80",102 % of control
same,T/C,"dose: 50.0 mg/kg/injection, schedule: Q01DX001 (ip), vehicle: saline with Tween-80",99 % of control
same,T/C,[14],97 % of control
COc1ccc(C(C)=O)cc1CN1CCN(Cc2cc(C(C)=O)ccc2OC)CC1,T/C,[1],104 % of control
same,T/C,[2],105 % of control
same,T/C,[3],99 % of control
COc1cc2c(c3oc(=O)cc(CCC(=O)O)c13)C1CC(=O)OC1O2 (stereo not given),T/C,"dose: 8.75 mg/kg/injection, schedule: Q01DX005 (ip), vehicle: Klucel (hydroxypropylcellulose) (HPC)",101 % of control
same,T/C,"dose: 17.5 mg/kg/injection, schedule: Q01DX005 (ip), vehicle: Klucel (hydroxypropylcellulose) (HPC)",100 % of control
same,T/C,"dose: 35.0 mg/kg/injection, schedule: Q01DX005 (ip), vehicle: Klucel (hydroxypropylcellulose) (HPC)",97 % of control
